Measurements taken from BindingDB's records for doi:10.1016/j.bmcl.2019.126715 (Merck, 2020).

Target: Proto-oncogene tyrosine-protein kinase Src (Homo sapiens) (UniProt P12931)
Test: Inhibition of recombinant full length human SRCN1 expressed in baculovirus expression system using tyrosine-2 peptide as substrate incubated for 60 mins in presence of ATP by Z'-LYTE assay

Proto-oncogene tyrosine-protein kinase Src (Homo sapiens), sequence (P12931 whole entry, looked up): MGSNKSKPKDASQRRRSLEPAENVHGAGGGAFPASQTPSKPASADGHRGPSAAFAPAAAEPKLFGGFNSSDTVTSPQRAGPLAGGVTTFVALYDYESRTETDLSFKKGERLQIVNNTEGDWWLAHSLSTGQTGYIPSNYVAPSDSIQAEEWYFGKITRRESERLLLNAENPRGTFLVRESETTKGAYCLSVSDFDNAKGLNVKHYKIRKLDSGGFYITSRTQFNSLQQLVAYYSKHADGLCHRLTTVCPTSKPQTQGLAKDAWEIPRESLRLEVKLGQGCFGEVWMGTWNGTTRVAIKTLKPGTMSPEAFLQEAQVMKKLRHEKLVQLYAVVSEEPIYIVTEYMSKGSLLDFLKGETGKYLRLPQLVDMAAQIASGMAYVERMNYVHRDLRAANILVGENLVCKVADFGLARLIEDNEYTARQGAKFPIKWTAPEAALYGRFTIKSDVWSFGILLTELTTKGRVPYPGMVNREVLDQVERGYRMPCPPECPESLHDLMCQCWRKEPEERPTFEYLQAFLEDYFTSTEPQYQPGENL

IC50: > 100 µM
SMILES: C[C@@H]1C[C@H]1C(=O)N1CCN(c2cnc(C#N)c(-c3cnn(C)c3)n2)C[C@H]1C
